# Measured values: patent publication US20190002585A1, “CANCER TREATMENT METHODS AND COMPOSITIONS” (The Cleveland Clinic Foundation, priority 2017, published 2019)
# Where a SMILES comes first, the peptide text is derived from it. The star is where a group is joined. Cbz = O=C(OCc1ccccc1)*; CH2F = FC*
# What was measured:
# [1] = tested on: WT A549 cells; assay: Apoptosis assay (caspase 3/7), IncuCyte; type: cell-based, human
# Protocol: (§1) Cells were seeded in 96-well plates and treated with Aza as above. The cells were incubated with IncuCyte™ Kinetic Caspase-3/7 Apoptosis Assay Reagent (green) according to manufacturer's protocol and with 250 nM of Syto Red dye (ThermoFisher) for 24 hours. The apoptotic index was determined by determining the total count [green Integrated Intensity (GCU×μm^2/Image)] and then normalizing by count confluence (percent) using IncuCyte software.
# [2] = tested on: WT A549 cells; assay: Cell death assay, IncuCyte real-time imaging, dual dye; type: cell-based
# Protocol: (§2) Cell lines and viruses. Human A549 cells (ATCC® CCL-185™) validated by STR analysis were cultured in RPMI 1640 medium (Gibco) supplemented with 10% fetal bovine serum (FBS), 100U/ml penicillin and 100 μg/ml streptomycin. PC3, DU145 and C4-2 cells were grown in RPMI with 10% FBS. HAEC, BEAS 2B and BETA cells were grown in LHC-8 (Biofluids/Biosource, catalog #P141-500) supplemented with 0.1% epinehrin (Biofluids/Biosource, catalog #355-002), 3.3 mM retinoic acid (Biofluids/Biosource, catalog #348-001) and penicillin-streptomycin-fungizone (Invitogen, catalog #15240-062) and were a gift from Drs. Suzy Comhair and Serpil Erzurum (Cleveland Clinic).
# (§3) Cells (20,000 per well) were seeded in 24-well plates or 8,000 cells per well in 96-well plates and treated as stated in figure legends. The cells were incubated with 250 nM Sytox-Green dye (Thermo Fisher), a nucleic acid stain that is an indicator of dead cells and which is impermeant to live cells, and 250 nM of cell permeable dye Syto™ 60-Red (ThermoFisher), which allows quantification of the total number of cells present in each field, using an IncuCyte Live-Cell Imaging System and software (Essen Instruments 2015A) for 72 hours. Cell death was measured by counting the green objects per/well (dead cells, green) and then normalizing to the total number of cells per/well (red objects) at each time point using IncuCyte software.
# [3] = tested on: primary alveolar epithelial cells HAEC; assay: Cell death assay, IncuCyte live-cell imaging; type: cell-based, human; details: FIG. 7
# Protocol: as §2, §3
# [4] = tested on: bronchial epithelium BEAS 2B cells; assay: Cell death assay, IncuCyte live-cell imaging; type: cell-based, human; details: FIG. 7
# Protocol: as §2, §3
# [5] = tested on: bronchial epithelial cells BETA; assay: Cell death assay, IncuCyte live-cell imaging; type: cell-based, human; details: FIG. 7
# Protocol: as §2, §3
# [6] = tested on: RNASEL KO A549 cells with knock-in of WT RNase L; assay: Cell death assay, IncuCyte, RNase L knock-in; type: cell-based, human; details: 50 μM AZA for 72 hr
# Protocol: (§4) Both WT and R667A RNase L have a FLAG epitope attached. Cells were lysed after 72 hr and proteins were analyzed by Western blot probed with anti-Flag M2 antibody (Sigma-Aldrich) (upper) and anti-β-actin antibody (Sigma-Aldrich) (lower). […] Dead cells and total cells were determined with an IncuCyte real-time imaging system using a dual-dye method. A minimum of three wells were treated with each experimental condition. The data are average±SD from three independent replicates. […] Three separate wells were treated with each experimental condition and a minimum of 4 image fields (>10,000 cells/well) were analyzed per well.
# as §3
# [7] = tested on: RNASEL KO A549 cells with knock-in of mutant RNase L (R667A); assay: Cell death assay, IncuCyte, RNase L knock-in; type: cell-based, human; details: 50 μM AZA for 72 hr
# Protocol: as §4, §3
# [8] = tested on: WT A549 cells; assay: PARP cleavage, Western blot; type: cell-based, human; details: 50 uM AZA for 48 hours
# Protocol: (§5) PARP cleavage was monitored in Western blots probed with [anti PAPR1 (rabbit polyclonal) (Santa Cruz Biotechnology)]. β-actin levels were monitored with 3-actin (mouse monoclonal) antibody (Sigma-Aldrich) to evaluated as a control.
# (§6) Prior to lysis, cells were washed twice in cold phosphate-buffered saline (PBS). Cell extracts were prepared with lysis buffer supplemented with phosphatase/protease inhibitors followed by incubation on ice for 20 min. Lysates were subjected to centrifugation at 12,000 g for 10 min, and the supernatants collected and protein quantified by Bradford assays (BioRaD). Cell lysates ([…]) were separated on 8% or 10% SDS PAGE gels and proteins were transferred to polyvinylidene difluoride membranes (0.45 μm) (BioRaD) and probed with antibodies according to the different manufacturers' recommendations.
# [9] = tested on: RNase L KO A549 cells; assay: PARP cleavage, Western blot; type: cell-based, human; details: 50 uM AZA for 48 hours
# Protocol: as §5, §6
# [10] = tested on: RNase L KO A549 cells; assay: Cell death assay, IncuCyte real-time imaging, dual dye; type: cell-based, human; design: AZA sensitivity: dose or concentration left out as unconfirmed
# Protocol: as §2
# (§7) The A549 RNase L KO cells were described previously. Additional knockout cells were generated using the CRISPR Cas9 system. The sgRNA sequences were chosen from a published database. The guide RNA sequences were synthesized as DNA oligonucleotides by IDT. Primers were annealed, phosphorylated and ligated into vector LentiCRISPR v2 (Addgene 52961) that was prepared by digestion with BsmBI. The resulting plasmids were transformed into Stbl3 chemically competent cells (Invitrogen) and grown on a bacterial culture plate at 37° C. Colonies were screened by PCR using the U6 primer and gene specific reverse primer to generate approximately 300 bp product. Positive clones were cultured and plasmid DNA was prepared and sequence verified using the U6 primer. The AKAP7 sgRNA sequences are: sgAKAP7-2 FW CACCGTGAGCGACTGGCCAAAGCAA (SEQ ID NO:1) and sgAKAP7-2 REV AAACTTGCTTTGGCCAGTCGCTCA C (SEQ ID NO:2). The PDE12 sgRNA sequences are: sgPDE12_10.FW CACCGGGATGCCTGGCAAGACGGCG (SEQ ID NO:3) and sgPDE12_10.REV AAACCGCCGTCTTGCCAGGCATCCC (SEQ ID NO:4). Cell cloning was done by limited dilution. The CRISPR vector, pLenti-sgRL-6, was used to knockout RNase L in PC3 cells as we described for RNase L KO A549 cells. To obtain the PDE12/AKAP7 DKO cells, a PDE12 knockout A549 cell line was infected with pseudo lentiviruses expression sgRNA for AKAP7 followed by single cell cloning. The PDE12/RNase L DKO cells were obtained by infecting the RNase L KO A549 cells with the pseudo lentivirus expressing sgRNA for AKAP7 followed by single cell cloning. Resulting clones were screened for knock-out of expression using Western Blots with anti-PDE12 antibody (Abcam ab87738), anti-AKAP7 (Proteintech: Cat#12591-1-AP) antibody or monoclonal antibody against human RNase L [13].
# as §3
# [11] = tested on: PDE12 KO A549 cells; assay: Cell survival, IncuCyte; type: cell-based, human; details: 50 uM AZA (FIG. 11)
# Protocol: as §7, with “To obtain the PDE12/AKAP7 DKO cells, a PDE12 knockout A549 cell line was infected with pseudo lentiviruses expression sgRNA for AKAP7 followed by single cell cloning. The PDE12/RNase L DKO cells were obtained by infecting the RNase L KO A549 cells with the pseudo lentivirus expressing sgRNA for AKAP7 followed by single cell cloning. Resulting clones were screened for knock-out of expression using Western Blots with anti-PDE12 antibody (Abcam ab87738), anti-AKAP7 (Proteintech: Cat#12591-1-AP) antibody or monoclonal antibody against human RNase L [13].” left out
# as §3
# [12] = tested on: AKAP7-PDE12 DKO A549 cells; assay: Cell survival, IncuCyte; type: cell-based, human; details: 50 uM AZA (FIG. 11)
# Protocol: as §7, with “To obtain the PDE12/AKAP7 DKO cells, a PDE12 knockout A549 cell line was infected with pseudo lentiviruses expression sgRNA for AKAP7 followed by single cell cloning. The PDE12/RNase L DKO cells were obtained by infecting the RNase L KO A549 cells with the pseudo lentivirus expressing sgRNA for AKAP7 followed by single cell cloning. Resulting clones were screened for knock-out of expression using Western Blots with anti-PDE12 antibody (Abcam ab87738), anti-AKAP7 (Proteintech: Cat#12591-1-AP) antibody or monoclonal antibody against human RNase L [13].” left out
# as §3
# [13] = tested on: AKAP7 KO A549 cells; assay: Cell survival, IncuCyte; type: cell-based, human; details: 50 uM AZA (FIG. 11)
# Protocol: as §7, with “To obtain the PDE12/AKAP7 DKO cells, a PDE12 knockout A549 cell line was infected with pseudo lentiviruses expression sgRNA for AKAP7 followed by single cell cloning. The PDE12/RNase L DKO cells were obtained by infecting the RNase L KO A549 cells with the pseudo lentivirus expressing sgRNA for AKAP7 followed by single cell cloning. Resulting clones were screened for knock-out of expression using Western Blots with anti-PDE12 antibody (Abcam ab87738), anti-AKAP7 (Proteintech: Cat#12591-1-AP) antibody or monoclonal antibody against human RNase L [13].” left out
# as §3
# [14] = tested on: OAS (1, 2, 3) triple KO HME cells; assay: Cell death assay, IncuCyte; type: cell-based, human; details: AZA 50 μM, compared with WT HME
# Protocol: as §4, §3
# [15] = tested on: ADAR1 p150 KO A549 cells; assay: Cell survival, IncuCyte; type: cell-based, human; design: dose or concentration left out as unconfirmed; details: AZA (FIG. 19C)
# Protocol: as §3
# [16] = tested on: MAVS-RNase L DKO A549 cells; assay: Cell death assay, IncuCyte real-time imaging; type: cell-based, human; details: concentrations up to 100 uM
# Protocol: as §3, with “SytoTM” for “Syto™”, “[…])” for “2015A)”
# [17] = tested on: MAVS KO A549 cells; assay: Cell death assay, IncuCyte real-time imaging; type: cell-based, human; details: different doses of AZA, compared with WT
# Protocol: as §3, with “SytoTM” for “Syto™”, “[…])” for “2015A)”
# [18] = tested on: MAVS-ADAR1 DKO A549 cells; assay: Cell survival, IncuCyte; type: cell-based, human; details: 50 mM AZA (FIG. 19), compared with WT cells
# Protocol: (§8) In FIG. 19 WT, RNase L-ADAR1 DKO, MAVS-ADAR1 DKO, MAVS-ADAR1-RNase L TKO and p150 ADAR1 isoform KO A549 cells were incubated without AZA (panel A) or with […] AZA (panels B and C). Percent survival after […] AZA treatment was calculated using an IncuCyte system. The data are average=±SD from three independent replicates. Similar data were obtained from two additional independent experiments.
# as §3
# [19] = tested on: RNase L-ADAR1 DKO A549 cells; assay: Cell survival, IncuCyte; type: cell-based, human; details: 50 mM AZA (FIG. 19)
# Protocol: as §8, §3
# [20] = tested on: MAVS-ADAR1-RNase L TKO A549 cells; assay: Cell survival, IncuCyte; type: cell-based, human; details: 50 μM AZA (FIG. 19)
# Protocol: as §8, §3
# [21] = tested on: DU145 prostate cancer cells; assay: Cell death assay, IncuCyte real-time imaging; type: cell-based, human; details: FIG. 8
# Protocol: as §2, §3
# [22] = tested on: PC3 prostate cancer cells; assay: Cell death assay, IncuCyte real-time imaging; type: cell-based, human; details: FIG. 9
# Protocol: as §2, §3
# [23] = tested on: C4-2 prostate cancer cells; assay: Cell death assay, IncuCyte real-time imaging; type: cell-based, human; details: FIG. 8
# Protocol: as §2, §3
# [24] = tested on: MAVS KO A549 cells; assay: Apoptosis assay (caspase 3/7), IncuCyte; type: cell-based, human; details: 50 uM AZA, compared with WT
# Protocol: as §1
# [25] = tested on: MAVS/RNase L DKO A549 cells; assay: Apoptosis assay (caspase 3/7), IncuCyte; type: cell-based, human; details: 50 uM AZA
# Protocol: as §1
# [26] = tested on: RNase L KO A549 cells; assay: Apoptosis assay (caspase 3/7), IncuCyte; type: cell-based, human; details: 50 uM AZA
# Protocol: as §1
compound,measurement,setting,value
CC(NC(=O)C(NC(=O)OCc1ccccc1)C(C)C)C(=O)NC(CC(=O)O)C(=O)CF (stereo not drawn) [Z-VAD] (Cbz-Val-Ala-Asp-CH2F; configuration not given here),effect on caspase3/7 activation by AZA,[1]; 50 uM Z-VAD in presence of 50 uM AZA,greatly suppressed caspase3/7 activation
"Nc1ncn([C@@H]2O[C@H](CO)[C@@H](O)[C@H]2O)c(=O)n1 [AZA, 5-azacytidine]",cell death,"[2]; 50 uM AZA, by 60 hours of treatment",85%
same,cell survival,[2]; AZA 25 uM by itself,57%
same,AZA sensitivity,"[2]; FIG. 7, compared with normal lung epithelia",highly sensitive
same,cytotoxicity of AZA with ionizing radiation,"[2]; IR 10 Gy for 10 min, then AZA 25 μM or 12.5 μM for 50 hr",potentiates the cytotoxicity of AZA
same,AZA sensitivity,[3],resistant
same,AZA sensitivity,[4],resistant
same,AZA sensitivity,[5],resistant
same,sensitivity to AZA treatment,[6],sensitized cells to AZA treatment
same,sensitivity to AZA treatment,[7],did not
same,cleaved PARP,[8],large increase in cleaved PARP
same,PARP cleavage,[9],only a slight increase
same,cell death,[10]; 50 uM AZA,9%
same,cell death,[10]; 100 uM AZA,17%
same,sensitivity to treatment (cell survival),"[10]; AZA 25 uM, 2-5A 1 uM transfected, or both",completely resistant
same,AZA sensitivity,[10]; AZA (FIG. 19),AZA resistant
same,cell survival,[11],37%
same,cell survival,[12],17%
same,cell survival,[13],56%
same,sensitivity to AZA,[14],relatively resistant
same,cytotoxic effect of AZA,[15],highly sensitive
same,sensitivity to AZA treatment,[16],almost completely resistant
same,sensitivity to AZA treatment,[17],slightly less sensitive
same,AZA sensitivity,[18],enhanced AZA sensitivity
same,AZA sensitivity,[19],AZA resistant
same,AZA sensitivity,[20],AZA resistant
same,induction of cell death by AZA,[21],sensitive
same,induction of cell death by AZA,[22],sensitive
same,induction of cell death by AZA,[23],relatively resistant
same,caspase3/7 activation,[24],at best only a small effect in reducing caspase3/7 activation
same,caspase3/7 activation,[25],highly resistant
same,caspase3/7 activation,[1]; 50 uM AZA,high levels of caspase3/7 activation
same,caspase3/7 activation,[26],resistant
"Nc1ncn([C@H]2C[C@H](O)[C@@H](CO)O2)c(=O)n1 [DAC, 5-aza-2′-deoxycytidine]",cell survival,"[2]; 25 uM DAC, up to 70 hrs",56%
same,cell survival,"[2]; 50 uM DAC, up to 70 hrs",47%
same,sensitivity to DAC relative to AZA,[2]; up to 70 hrs,less sensitive
same,effect on survival,"[10]; DAC, up to 70 hrs",no effect
